Active and inactive are the calls of the source. The calls are words filed in the database; no cut-off is given here.

One may read the IC50 as the concentration that inhibits the measured activity by half.

This assay is described as follows: Inhibition of tubulin polymerization.

In the case of `CCCCCc1c2c(cc(O)c1C(=O)O)OC(=O)c1c(cc(OC)cc1C(=O)CCCC)O2` [LOBARIC ACID], the IC50 was found to be 100 µM.

As for `CCCCCc1c(C)c(O)cc(O)c1Oc1cc(OC)cc2c1C(=O)OC2CCCC` (stereo not drawn), the inhibition entry was “inactive”.

For the compound `CCCCCc1cc(O)cc(O)c1Oc1cc(OC)cc2c1C(=O)OC2(O)CCCC` (stereo not drawn), the inhibition result was “inactive”.

These data come from ChEMBL document CHEMBL1158446, “Antimitotic activity of lobaric acid and a new benzofuran, sakisacaulon A from Stereocaulon sasakii” (Bioorg Med Chem Lett, 2009).
